# Data from patent US6656453B2, “Medicaments” (SmithKline Beecham Corporation, priority 1995, dated 2003).
# Tests used:
# [1] = Thermal activity by microcalorimetry; type: physicochemical; conditions: microcalorimeter at 25° C., scanned from about 30% to about 90% relative humidity
# Protocol: To confirm that the salbutamol sulphate had been converted to the desired low energy, crystalline form i.e. had been annealed, the thermal activity and the water content of the treated salbutamol sulphate compared to untreated salbutamol sulphate was measured using standard microcalorimetry techniques and moisture sorption techniques respectively. A Hart Scientific Microcalorimeter (model 4400) was operated at 25° C. with a water adsorption unit and scanned from about 30% to about 90% relative humidity over a 11.5 hour period. Thermal equilibration time was 1 to 2 hours.
# [2] = Water content by vacuum balance moisture sorption; type: physicochemical; conditions: for water content: typical/normal value stated in description
# Protocol: To confirm that the salbutamol sulphate had been converted to the desired low energy, crystalline form i.e. had been annealed, the thermal activity and the water content of the treated salbutamol sulphate compared to untreated salbutamol sulphate was measured using standard microcalorimetry techniques and moisture sorption techniques respectively.
# A VTI Corp vacuum balance moisture sorption apparatus (model MB300G) was operated at 25° C., and scanned from about 20% to about 90% relative humidity, total scan time about 15 hours. Drying was accomplished at 35° C. under vacuum for approximately 1 hour before the equilibrium condition used for the scans of 3 micrograms/6 minutes was achieved. This same equilibrium weight change criterion was used for the sorption measurements.
# [3] = listed as Particulate salbutamol sulphate
Substance,thermal activity (heat rate) [1],"thermal activity (heat rate) [1, 3]","moisture content (moisture sorption profile, % weight gain against relative humidity) ([2]; 25° C., scanned from about 20% to about 90% relative humidity)","water content [2, 3] [% by weight]",water content ([2]; listed as annealed salbutamol sulphate)
salbutamol sulphate [Example 4],lacks significant thermal activity,,,,
"salbutamol sulphate [untreated salbutamol sulphate, reference compound]",exothermic rise in heat rate up to approximately 55% relative humidity followed by a large endothermic response,significantly greater thermal activity,significantly larger moisture content,≥ 0.5,
salbutamol sulphate [treated salbutamol sulphate],absent,,,,less than 0.4 % by weight
salbutamol sulphate [Example 2],lack significant thermal activity,,,,
salbutamol sulphate [Example 3],lack significant thermal activity,,,,
